What was measured:
Experiment in all cases: biochemical
[1] = target: T1, P. falciparum Rh5 (Rh5 – basigin interaction) (Plasmodium falciparum, UniProt Q8IFM5); parameters: AlphaScreen of Rh5 - His-tagged basigin interaction with anti-Rh5 mAb beads; inhibition of luminescence signal; settings: Batch Reference=01; primary pilot screen, single point
Procedure: Using the Combi-multidrop, 5 μL of Rh5 stock solution (200 nM prepared in assay buffer) was added to columns 1–24 of the 384-well assay plate (Greiner 384-well white, low binding plate, #784904, Bioone). The PerkinElmer Janus automated dispensing system was then employed to transfer, via the pin-tool, 2 × 100 nL of the compound stock DMSO solution from the compound master plate to the assay plate. The plate was sealed and incubated for 30 min at room temperature. Using a Combi-multidrop, 5 μL of hexa-histidine tagged basigin stock solution (80 nM prepared in assay buffer) was then added to columns 1–23 and 5 μL assay buffer to column 24 of the 384-well assay plate. The plate was sealed again and incubated for 30 min at room temperature. A solution of AlphaScreen donor and acceptor beads (20 μg/mL prepared in assay buffer) plus anti-Rh5 mAb solution (2 μg/mL prepared in assay buffer) was prepared in assay buffer under subdued lighting. Using the Combi-multidrop, 10 μL of this solution was added to every well of the assay plate under subdued lighting. The plate was sealed with foil (plate max) and incubated at room temperature for 1 h. The assay plate was then analysed on the PerkinElmer Envision 2103 Multilabel Plate Reader (Ex 680, Em 520–620 nm). The optimised Rh5 AlphaScreen assay was then validated for HT screening purposes by conducting a pilot screen using known drug library (from Prestwick, Tocris and LOPAC) and the MMV Malaria Box, comprising 3708 and 400 compounds (Fig. 1), respectively. Historically, PPIs are notoriously difficult to target with small molecules. To enhance the likelihood of identifying an inhibitor of the Rh5 - basigin interaction the primary screen was conducted at a compound concentration of 20 μM. A 20 μM screening concentration is considered high, when compared to the commonly used primary screen concentrations of approximately 1–10 μM. To follow-up on hit compounds from the pilot validation screen, we next wanted to confirm the activity of the primary hits. To do this, a two-phase hit confirmation and counterscreen process was undertaken (Fig. 1). In the first phase, the 231 primary hits from both libraries were evaluated in the Rh5 AlphaScreen assay and counterscreen assay. Both assays were undertaken at 10 μM in duplicate. The counterscreen assay was conducted using AlphaScreen TruHits. […] The 45 secondary hits can be viewed in the top left quadrant of Fig. S8. Of the 45 hits, 13 compounds originated from the Malaria Box and 32 compounds from the known drug library.

[2] = target: T1, P. falciparum Rh5 (Rh5 – basigin interaction); parameters: AlphaScreen of Rh5 - His-tagged basigin interaction with anti-Rh5 mAb beads; inhibition of luminescence signal; settings: Batch Reference=01; confirmation screen, duplicate
Procedure: Using the Combi-multidrop, 5 μL of Rh5 stock solution (200 nM prepared in assay buffer) was added to columns 1–24 of the 384-well assay plate (Greiner 384-well white, low binding plate, #784904, Bioone). The PerkinElmer Janus automated dispensing system was then employed to transfer, via the pin-tool, 2 × 100 nL of the compound stock DMSO solution from the compound master plate to the assay plate. The plate was sealed and incubated for 30 min at room temperature. Using a Combi-multidrop, 5 μL of hexa-histidine tagged basigin stock solution (80 nM prepared in assay buffer) was then added to columns 1–23 and 5 μL assay buffer to column 24 of the 384-well assay plate. The plate was sealed again and incubated for 30 min at room temperature. A solution of AlphaScreen donor and acceptor beads (20 μg/mL prepared in assay buffer) plus anti-Rh5 mAb solution (2 μg/mL prepared in assay buffer) was prepared in assay buffer under subdued lighting. Using the Combi-multidrop, 10 μL of this solution was added to every well of the assay plate under subdued lighting. The plate was sealed with foil (plate max) and incubated at room temperature for 1 h. The assay plate was then analysed on the PerkinElmer Envision 2103 Multilabel Plate Reader (Ex 680, Em 520–620 nm). […] Historically, PPIs are notoriously difficult to target with small molecules. To enhance the likelihood of identifying an inhibitor of the Rh5 - basigin interaction the primary screen was conducted at a compound concentration of 20 μM. A 20 μM screening concentration is considered high, when compared to the commonly used primary screen concentrations of approximately 1–10 μM. […] To do this, a two-phase hit confirmation and counterscreen process was undertaken (Fig. 1). […] Both assays were undertaken at 10 μM in duplicate. The counterscreen assay was conducted using AlphaScreen TruHits.

[3] = target: T1, P. falciparum Rh5 (Rh5 – basigin interaction); assay type: binding

T1 sequence (Q8IFM5 24-526): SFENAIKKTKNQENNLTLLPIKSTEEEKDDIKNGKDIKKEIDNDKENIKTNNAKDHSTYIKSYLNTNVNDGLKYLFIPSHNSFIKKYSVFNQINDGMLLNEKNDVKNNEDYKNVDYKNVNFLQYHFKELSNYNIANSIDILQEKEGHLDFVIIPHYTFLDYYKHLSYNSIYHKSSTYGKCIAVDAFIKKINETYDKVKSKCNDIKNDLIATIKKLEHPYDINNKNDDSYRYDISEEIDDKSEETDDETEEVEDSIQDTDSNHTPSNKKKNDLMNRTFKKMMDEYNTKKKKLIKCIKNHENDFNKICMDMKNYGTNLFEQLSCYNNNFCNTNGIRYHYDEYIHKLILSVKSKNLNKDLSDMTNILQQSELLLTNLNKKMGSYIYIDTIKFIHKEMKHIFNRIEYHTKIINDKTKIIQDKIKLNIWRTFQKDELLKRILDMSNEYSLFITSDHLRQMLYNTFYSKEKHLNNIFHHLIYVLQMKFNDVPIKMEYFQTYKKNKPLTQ

O=C(Nc1cccc2c(=O)cc(-c3nnn[nH]3)oc12)c1ccc(OCCCCc2ccccc2)cc1 [pranlukast]
inhibition at 20 µM [1]: 75.4% | inhibition at 10 µM [2]: 69% | IC50 [3]: 12 µM
